# According to patent US10618913B2, “Macrocycles as PDE1 inhibitors” (H. Lundbeck A/S, priority 2017, dated 2020):
# Read-outs that look alike come from different tables or passages of the source.
# Key:
# Type in all cases: biochemical
# PDE1A = PDE1A (Homo sapiens (Human), UniProt P54750); assay: PDE1 inhibition assay (SPA, tritium labelled cAMP), PDE1A; settings: Table 1, compounds of the invention; 15 nM tritium labelled cAMP
# Experimental: (§1) Reactions were initiated by addition of the cyclic nucleotide substrate, and reactions were allowed to proceed for 1 hr at room temperature before being terminated through mixing with 20 μL (0.2 mg) yttrium silicate SPA beads (PerkinElmer).
# PDE1B = PDE1B (Homo sapiens (Human), UniProt Q01064); assay: PDE1 inhibition assay (SPA, tritium labelled cAMP), PDE1B
# Experimental: as §1
# PDE1C = PDE1C (Homo sapiens (Human), UniProt Q14123); assay: PDE1 inhibition assay (SPA, tritium labelled cAMP), PDE1C; settings: Table 1, compounds of the invention; 15 nM tritium labelled cAMP
# Experimental: Reactions were initiated by addition of the cyclic nucleotide substrate, and reactions were allowed to proceed for 1 hr at room temperature before being terminated through mixing with 20 μL (0.2 mg) yttrium silicate SPA beads (PerkinElmer). The beads were allowed to settle for 1 hr in the dark before the plates were counted in a Wallac 1450 Microbeta counter.
# [1] = Table 1, compounds of the invention, 15 nM tritium labelled cAMP, read-out: PDE1B, IC50
# Chain of PDE1C (Q14123 whole entry): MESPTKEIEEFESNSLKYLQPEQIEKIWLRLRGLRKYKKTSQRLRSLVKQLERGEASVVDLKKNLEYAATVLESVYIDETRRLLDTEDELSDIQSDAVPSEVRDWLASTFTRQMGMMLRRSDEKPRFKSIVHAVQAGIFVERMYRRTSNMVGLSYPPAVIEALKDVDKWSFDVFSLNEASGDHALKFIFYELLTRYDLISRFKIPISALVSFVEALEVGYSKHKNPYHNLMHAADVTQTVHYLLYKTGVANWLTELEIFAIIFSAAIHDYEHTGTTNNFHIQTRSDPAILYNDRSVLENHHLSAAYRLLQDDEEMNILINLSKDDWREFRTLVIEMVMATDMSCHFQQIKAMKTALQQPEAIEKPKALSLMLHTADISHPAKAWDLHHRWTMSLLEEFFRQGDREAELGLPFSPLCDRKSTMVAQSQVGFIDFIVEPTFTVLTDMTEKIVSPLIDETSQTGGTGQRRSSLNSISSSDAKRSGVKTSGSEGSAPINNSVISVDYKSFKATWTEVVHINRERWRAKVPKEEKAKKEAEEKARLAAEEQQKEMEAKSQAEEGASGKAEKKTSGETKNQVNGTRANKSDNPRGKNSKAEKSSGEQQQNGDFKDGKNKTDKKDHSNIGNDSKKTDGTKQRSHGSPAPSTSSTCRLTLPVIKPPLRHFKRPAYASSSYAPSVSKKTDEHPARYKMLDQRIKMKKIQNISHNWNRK
# Chain of PDE1A (P54750 whole entry): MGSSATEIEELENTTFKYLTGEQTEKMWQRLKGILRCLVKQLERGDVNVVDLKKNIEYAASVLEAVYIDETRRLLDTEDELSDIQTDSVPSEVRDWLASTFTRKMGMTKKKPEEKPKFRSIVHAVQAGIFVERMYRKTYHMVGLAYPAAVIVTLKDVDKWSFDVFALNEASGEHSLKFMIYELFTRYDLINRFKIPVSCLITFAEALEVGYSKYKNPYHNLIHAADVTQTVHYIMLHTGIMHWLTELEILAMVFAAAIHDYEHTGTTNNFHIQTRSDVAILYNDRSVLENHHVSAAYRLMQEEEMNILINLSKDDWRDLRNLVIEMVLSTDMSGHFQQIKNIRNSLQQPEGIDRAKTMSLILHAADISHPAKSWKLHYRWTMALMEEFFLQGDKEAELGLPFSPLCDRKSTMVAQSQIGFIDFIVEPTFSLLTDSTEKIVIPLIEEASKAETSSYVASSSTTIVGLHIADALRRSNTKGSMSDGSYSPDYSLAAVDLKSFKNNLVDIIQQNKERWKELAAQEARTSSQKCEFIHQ
# Chain of PDE1B (Q01064 whole entry): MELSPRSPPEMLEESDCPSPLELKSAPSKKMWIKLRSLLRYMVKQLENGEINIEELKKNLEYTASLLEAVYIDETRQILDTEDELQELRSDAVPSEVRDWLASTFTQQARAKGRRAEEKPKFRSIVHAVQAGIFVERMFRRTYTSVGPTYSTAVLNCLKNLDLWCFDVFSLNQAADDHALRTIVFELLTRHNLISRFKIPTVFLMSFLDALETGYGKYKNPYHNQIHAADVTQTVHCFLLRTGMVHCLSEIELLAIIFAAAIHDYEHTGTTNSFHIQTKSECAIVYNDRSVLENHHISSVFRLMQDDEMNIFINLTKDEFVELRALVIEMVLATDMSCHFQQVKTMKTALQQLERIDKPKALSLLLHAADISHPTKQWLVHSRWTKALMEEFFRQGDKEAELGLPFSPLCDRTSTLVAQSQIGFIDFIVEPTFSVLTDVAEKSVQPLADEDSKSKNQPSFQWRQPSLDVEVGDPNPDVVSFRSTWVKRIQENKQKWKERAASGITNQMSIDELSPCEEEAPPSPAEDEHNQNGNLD
IC50 (PDE1A) [nM],IC50 (PDE1B; [1]) [nM],IC50 (PDE1C) [nM],"inhibition at 10 µM (PDE1B; read-out: PDE1B, inhibition at 10 μM) [%]",IC50 (PDE1B) [nM],SMILES
428,95,497,–,–,"Cc1nn(C)c2c3cc(nc12)-c1cccnc1OCCCCOc1ncccc1CN3 [Example 7, 2^1,2^3-dimethyl-2^1H-6,11-dioxa-3-aza-2(5,7)-pyrazolo[4,3-b]pyridina-1,5(3,2)-dipyridinacycloundecaphane]"
53,15,56,–,–,"Cc1nn(C(C)C)c2c3cc(nc12)-c1cccnc1OCCCCn1nccc1CN3 [Example 9, 2^1-isopropyl-2^3-methyl-2^1H,5^1H-10-oxa-3-aza-2(5,7)-pyrazolo[4,3-b]pyridina-1(3,2)-pyridina-5(5,1)-pyrazolacyclodecaphane]"
25,4.7,80,–,–,"Cc1nn(C(C)C)c2c3cc(nc12)-c1cccnc1OCCCCCn1nccc1CN3 [Example 5, 2^1-isopropyl-2^3-methyl-2^1H,5^1H-11-oxa-3-aza-2(5,7)-pyrazolo[4,3-b]pyridina-1(3,2)-pyridina-5(5,1)-pyrazolacycloundecaphane]"
38,4.2,69,–,–,"Cc1nn(C(C)C)c2c3cc(nc12)-c1cccnc1OCCCOc1ncccc1CN3 [Example 3, 2^1-isopropyl-2^3-methyl-2^1H-6,10-dioxa-3-aza-2(5,7)-pyrazolo[4,3-b]pyridina-1,5(3,2)-dipyridinacyclodecaphane]"
256,36,412,–,–,"CCn1nc(C)c2nc3cc(c21)NCc1cccnc1OCCCCOc1ncccc1-3 [Example 8, 2^1-ethyl-2^3-methyl-2^1H-6,11-dioxa-3-aza-2(5,7)-pyrazolo[4,3-b]pyridina-1,5(3,2)-dipyridinacycloundecaphane]"
10,–,17,> 99,–,"Cc1nn(C(C)C)c2c3cc(nc12)-c1cccnc1OCCCCOc1nccnc1CN3 [Example 10, 2^1-isopropyl-2^3-methyl-2^1H-6,11-dioxa-3-aza-2(5,7)-pyrazolo[4,3-b]pyridina-5(2,3)-pyrazina-1(3,2)-pyridinacycloundecaphane]"
2.6,0.54,16,–,–,"Cc1nn(C(C)C)c2c3cc(nc12)-c1cccnc1OCCOCCOc1ncccc1CN3 [Example 4, 2^1-isopropyl-2^3-methyl-2^1H-6,9,12-trioxa-3-aza-2(5,7)-pyrazolo[4,3-b]pyridina-1,5(3,2)-dipyridinacyclododecaphane]"
12,–,20,–,1.4,"Cc1nn(C(C)C)c2c3cc(nc12)-c1cccnc1OCCCCOc1ncccc1CN3 [Example 1, 2^1-isopropyl-2^3-methyl-2^1H-6,11-dioxa-3-aza-2(5,7)-pyrazolo[4,3-b]pyridina-1,5(3,2)-dipyridinacycloundecaphane]"
0.47,0.27,3.9,–,–,"Cc1nn(C(C)C)c2c3cc(nc12)-c1cccnc1OCCCCOc1cccnc1CN3 [Example 6, 2^1-isopropyl-2^3-methyl-2^1H-6,11-dioxa-3-aza-2(5,7)-pyrazolo[4,3-b]pyridina-1(3,2),5(2,3)-dipyridinacycloundecaphane]"
18,1.5,54,–,–,"Cc1nn(C(C)C)c2c3cc(nc12)-c1cccnc1OCCCCCOc1ncccc1CN3 [Example 2, 2^1-isopropyl-2^3-methyl-2^1H-6,12-dioxa-3-aza-2(5,7)-pyrazolo[4,3-b]pyridina-1,5(3,2)-dipyridinacyclododecaphane]"
